{"source": "patent US20240148900A1", "about": "“IMMUNOSTIMULATORY CYCLIC DI-NUCLEOTIDE DELIVERY SYSTEM COMPOSITIONS AND METHOD OF USE THEREOF” (VIRGINIA COMMONWEALTH UNIVERSITY, priority 2021, published 2024)", "key": {"[1]": {"experiment": "Stability of CDG in 10% FBS-supplemented cell culture medium", "assay_type": "in vitro ADME", "conditions": "7 days in cell culture medium with 10% serum, 37° C., absorption at 254 nm", "from_the_text": "FIG. 1A-H. Characterization of STING-NVs. (a) UV-vis absorbance spectra of PEG-b-PLA NPs, 5c-i-motif DNA, and 5c-NPs. […] Lane legends: 1: 25 bp DNA ladder; 2: 9C-i-motif; 3: 3C-NPs; 4: 5C-NPs; 5: 7C-NPs; 6: 9C-NPs. (c) DLS graphs showing the hydrodynamic diameters of 5C-NPs (79±34 nm, PDI 0.157) and STING-NVs (81±32 nm, PDI 0.131). (d) A TEM image of STING-NVs. (e) Zeta potential of blank NPs, CDG-loaded NPs, and Lipo-CDG. STING-NVs: CDG-loaded 5C-NPs. (f) Stability of free CDG and CDG loaded in STING-NVs over 7-day incubation in 10% FBS-supplemented cell culture medium (37° C.). A254nm: 254 nm absorption from CDG; A560nm: 560 nm absorption from medium as an internal reference. (g, h) MST traces (g) and fitting curve (h) of the kinetic interaction between 5C-NPs and CDG at pH 7.4. Data represent mean±standard deviation (SD) (n=3).\nThe ability of STING-NVs to promote the biostability of CDG is presumably due to the steric hindrance of i-motif-NPs that prevent the access of nucleases. Using HPLC and microscale thermophoresis (MST), we further studied the binding of CDG with 5C-i-motifs, which is the basis for CDG loading into i-motif-modified NPs. In HPLC, relative to free CDG and 5C-i-motif, the delayed elution time of physically mixed CDG and 5C-i-motif indicated the complexation of CDG and 5C-i-motif (FIG. 10). […]"}, "RAW264.7 macrophages": {"tested_on": "RAW264.7 macrophages", "experiment": "Cell uptake of FluoCDG by flow cytometry", "assay_type": "cell-based, murine", "conditions": "FluoCDG 0.5 μg/mL; free CDG over 2 h, formulations 0.5 h post incubation", "description": "CDG release from STING-NVs. First, STING-NVs were dispersed in 1 mL of 1×PBS at different pH and agitated at 200 rpm. Then the mixture was ultra-filtrated at each hour point. The filtrate was taken for CDG detection, and the same volume of fresh buffer was added back to the residual mixture. The amount of released CDG in the filtrate was determined by measuring the absorption at 254 nm using a UV-Vis spectrometer. Lipo-CDG Synthesis. DOTAP, cholesterol, and DSPE-PEG(2000) were purchased from Avanti Polar Lipids. Lipids were mixed at molar ratios of 1:1:0.2 DOTAP:cholesterol:DSPE-PEG(2000). Lipid mixtures were dried under a nitrogen stream in glass test tubes. The resulting lipid films were placed in a desiccation system overnight. […] The CDG content of the liposomes was determined by measuring the absorbance peak of the liposomes at 254 nm, corresponding to the maximum absorbance of CDG, subtracting the lipid contribution to absorbance at this wavelength. […] Secreted IFN-α was quantified with the LumiKine Xpress mIFN-α enzyme-linked immunosorbent assay kit (InvivoGen). Secreted IL-6 and IL-12 were quantified with the Mouse IL-6 Quantikine™ ELISA Kit (R&D Systems). […] Cells were analyzed for fluorescein signal (from fluorescein-modified CDG) on the CytoFLEX LX (Beckman Coulter) flow cytometer."}}}
{"molecule": "Nc1nc2c(ncn2[C@@H]2O[C@@H]3COP(=O)(O)O[C@H]4[C@@H](O)[C@H](n5cnc6c(=O)[nH]c(N)nc65)O[C@@H]4COP(=O)(O)O[C@H]3[C@H]2O)c(=O)[nH]1", "note": "[free CDG, cyclic dimeric guanosine monophosphate]", "values": [{"measurement": "intact CDG", "setting": "[1]", "value": 2.3, "unit": "%"}, {"measurement": "FluoCDG fluorescence signal enhancement", "setting": "RAW264.7 macrophages", "value": "only slight FluoCDG signal enhancement"}]}
